Experimental data published in ChEMBL document CHEMBL5500339, “4-Hydroxy-2-pyridone derivatives with antitumor activity produced by mangrove endophytic fungus Talaromyces sp. CY-3” (Eur J Med Chem, 2024).
Activity calls are given as the source filed them. The rule behind the calls is not given here.

How the values were obtained:
A549 [1] = test: Induction of cell cycle arrest in human A549 cells assessed as accumulation of cells at G1/G0 phase at 10 uM incubated for 24 hrs by flow cytometric analysis (reference value: 51.49 %); assay type: functional
A549 [2] = test: Induction of cell cycle arrest in human A549 cells assessed as downregulation of CDK4 protein expression incubated for 24 hrs by Western blotting analysis; assay type: functional, cell-based
[3] = Cytotoxicity against mouse Lewis lung carcinoma cell line assessed as reduction in cell viability incubated for 48 hrs by MTT assay; assay type: functional, cell-based
A549 [4] = test: Induction of cell cycle arrest in human A549 cells assessed as downregulation of CDK6 protein expression incubated for 24 hrs by Western blotting analysis; assay type: functional, cell-based
MDA-MB-231 = test: Cytotoxicity against human MDA-MB-231 cells assessed as reduction in cell viability incubated for 48 hrs by MTT assay; assay type: functional, cell-based; settings: MDA-MB-231, 48 h
NCI-H1703 [5] = test: Antiproliferative activity against human NCI-H1703 cells assessed as inhibition of cell growth incubated for 18 hrs by Edu incorporation based fluorescence microscopic analysis; assay type: functional
B16-F10 = test: Cytotoxicity against mouse B16-F10 cells assessed as reduction in cell viability incubated for 48 hrs by MTT assay; assay type: functional, cell-based; settings: B16-F10, 48 h
NCI-H1703 [6] = test: Antiproliferative activity against human NCI-H1703 cells assessed as inhibition of cell growth at 10 uM incubated for 24 hrs by MTT assay; assay type: functional, cell-based
NCI-H1703 [7] = test: Induction of cell cycle arrest in human NCI-H1703 cells assessed as accumulation of cells at G1/G0 phase at 5 uM incubated for 24 hrs by flow cytometric analysis (reference value: 42.06 %); assay type: functional
A549 [8] = test: Antiproliferative activity against human A549 cells assessed as inhibition of cell growth at 10 uM incubated for 24 hrs by MTT assay; assay type: functional, cell-based
NCI-H1703 [9] = test: Induction of cell cycle arrest in human NCI-H1703 cells assessed as downregulation of Rb phosphorylation at Ser807/811 residue at 5 uM incubated for 24 hrs by Western blotting analysis; assay type: functional, cell-based
PC-3 = test: Cytotoxicity against human PC-3 cells assessed as reduction in cell viability incubated for 48 hrs by MTT assay; assay type: functional, cell-based; settings: PC-3, 48 h
NCI-H1703 [10] = test: Induction of cell cycle arrest in human NCI-H1703 cells assessed as accumulation of cells at G2/M phase at 10 uM incubated for 24 hrs by flow cytometric analysis (reference value: 29.88 %); assay type: functional
NCI-H1703 [11] = test: Induction of cell cycle arrest in human NCI-H1703 cells assessed as accumulation of cells at S phase at 5 uM incubated for 24 hrs by flow cytometric analysis (reference value: 28.06 %); assay type: functional
A549 [12] = test: Induction of cell cycle arrest in human A549 cells assessed as accumulation of cells at S phase at 20 uM incubated for 24 hrs by flow cytometric analysis (reference value: 31.31 %); assay type: functional
NCI-H1703 [13] = test: Induction of cell cycle arrest in human NCI-H1703 cells assessed as downregulation of Rb phosphorylation at Ser807/811 residue at 10 uM incubated for 24 hrs by Western blotting analysis; assay type: functional, cell-based
NCI-H1703 [14] = test: Inhibition of colony formation in human NCI-H1703 cells at 2.5 uM incubated for 7 days by crystal violet staining analysis; assay type: functional, cell-based; settings: time 7.0 day
A549 [15] = test: Antiproliferative activity against human A549 cells assessed as inhibition of cell growth incubated for 18 hrs by Edu incorporation based fluorescence microscopic analysis; assay type: functional
A549 [16] = test: Inhibition of colony formation in human A549 cells at 10 uM incubated for 7 days by crystal violet staining analysis; assay type: functional, cell-based; settings: time 7.0 day
NCI-H1703 [17] = test: Induction of cell cycle arrest in human NCI-H1703 cells assessed as accumulation of cells at G1/G0 phase at 10 uM incubated for 24 hrs by flow cytometric analysis (reference value: 42.06 %); assay type: functional
NCI-H1703 [18] = test: Induction of cell cycle arrest in human NCI-H1703 cells assessed as downregulation of total Rb protein level at 5 uM incubated for 24 hrs by Western blotting analysis; assay type: functional, cell-based
NCI-H1703 [19] = test: Induction of cell cycle arrest in human NCI-H1703 cells assessed as downregulation of CyclinD1 protein expression incubated for 24 hrs by Western blotting analysis; assay type: functional, cell-based
NCI-H1703 [20] = test: Induction of cell cycle arrest in human NCI-H1703 cells assessed as upregulation of p53 protein expression incubated for 24 hrs by Western blotting analysis; assay type: functional, cell-based
Hepa 1-6 = test: Cytotoxicity against mouse Hepa1-6 cells assessed as reduction in cell viability incubated for 48 hrs by MTT assay; assay type: functional, cell-based; settings: Hepa1-6, 48 h
A549 [21] = test: Induction of cell cycle arrest in human A549 cells assessed as downregulation of total Rb protein level at 20 uM incubated for 24 hrs by Western blotting analysis; assay type: functional, cell-based
A549 [22] = test: Induction of cell cycle arrest in human A549 cells assessed as downregulation of total Rb protein level at 10 uM incubated for 24 hrs by Western blotting analysis; assay type: functional, cell-based
4T1 = test: Cytotoxicity against mouse 4T1 cells assessed as reduction in cell viability incubated for 48 hrs by MTT assay; assay type: functional, cell-based; settings: 4T1, 48 h
HCT-116 = test: Cytotoxicity against human HCT-116 cells assessed as reduction in cell viability incubated for 48 hrs by MTT assay; assay type: functional, cell-based; settings: HCT-116, 48 h
A549 [23] = test: Induction of cell cycle arrest in human A549 cells assessed as upregulation of p53 protein expression incubated for 24 hrs by Western blotting analysis; assay type: functional, cell-based
NCI-H1703 [24] = test: Induction of cell cycle arrest in human NCI-H1703 cells assessed as accumulation of cells at S phase at 10 uM incubated for 24 hrs by flow cytometric analysis (reference value: 28.06 %); assay type: functional
A549 [25] = test: Induction of cell cycle arrest in human A549 cells assessed as accumulation of cells at S phase at 10 uM incubated for 24 hrs by flow cytometric analysis (reference value: 31.31 %); assay type: functional
NCI-H1703 [26] = test: Cytotoxicity against human NCI-H1703 cells assessed as reduction in cell viability incubated for 48 hrs by MTT assay; assay type: functional, cell-based; settings: NCI-H1703, 48 h
NCI-H1703 [27] = test: Induction of cell cycle arrest in human NCI-H1703 cells assessed as upregulation of p21 protein expression incubated for 24 hrs by Western blotting analysis; assay type: functional, cell-based
CT26 = test: Cytotoxicity against mouse CT26 cells assessed as reduction in cell viability incubated for 48 hrs by MTT assay; assay type: functional, cell-based; settings: CT26, 48 h
A549 [28] = test: Induction of cell cycle arrest in human A549 cells assessed as accumulation of cells at G1/G0 phase at 20 uM incubated for 24 hrs by flow cytometric analysis (reference value: 51.49 %); assay type: functional
SNB-19 = test: Cytotoxicity against human SNB-19 cells assessed as reduction in cell viability incubated for 48 hrs by MTT assay; assay type: functional, cell-based; settings: SNB-19, 48 h
A549 [29] = test: Antiproliferative activity against human A549 cells assessed as inhibition of cell growth at 20 uM incubated for 24 hrs by MTT assay; assay type: functional, cell-based
A549 [30] = test: Induction of cell cycle arrest in human A549 cells assessed as accumulation of cells at G2/M phase at 10 uM incubated for 24 hrs by flow cytometric analysis (reference value: 17.2 %); assay type: functional
NCI-H1703 [31] = test: Inhibition of colony formation in human NCI-H1703 cells at 5 uM incubated for 7 days by crystal violet staining analysis; assay type: functional, cell-based; settings: time 7.0 day

C/C=C/[C@@H]1[C@H]2C[C@@H](C)CC[C@@H]2C(C)=C[C@H]1C(=O)c1c(O)c(-c2ccc(O)cc2)c[nH]c1=O [ILICICOLIN H]
Activity (A549 [1]): 64.26% | Activity (A549 [2]): Dose-Dependent Effect | IC50 [3]: 5.78 µM | Activity (A549 [4]): Dose-Dependent Effect | IC50 (MDA-MB-231): 9.98 µM | Activity (NCI-H1703 [5]): Dose-Dependent Effect | IC50 (B16-F10): 21.6 µM | Activity (NCI-H1703 [6]): Active | Activity (NCI-H1703 [7]): 50.13% | Activity (A549 [8]): Active | Activity (NCI-H1703 [9]): Active | IC50 (PC-3): > 50 µM | Activity (NCI-H1703 [10]): 19.48% | Activity (NCI-H1703 [11]): 23.26% | Activity (A549 [12]): 14.95% | Activity (NCI-H1703 [13]): Active | inhibition (NCI-H1703 [14]): Active | Activity (A549 [15]): Dose-Dependent Effect | inhibition (A549 [16]): Active | Activity (NCI-H1703 [17]): 56.04% | Activity (NCI-H1703 [18]): inactive | Activity (NCI-H1703 [19]): Dose-Dependent Effect | Activity (NCI-H1703 [20]): Dose-Dependent Effect | IC50 (Hepa 1-6): 19.6 µM | Activity (A549 [21]): inactive | Activity (A549 [22]): inactive | IC50 (4T1): 13.8 µM | IC50 (HCT-116): 10.8 µM | Activity (A549 [23]): Dose-Dependent Effect | Activity (NCI-H1703 [24]): 24.49% | Activity (A549 [25]): 10.84% | IC50 (NCI-H1703 [26]): 6.65 µM | Activity (NCI-H1703 [27]): Dose-Dependent Effect | IC50 (CT26): 19.5 µM | Activity (A549 [28]): 72.12% | IC50 (SNB-19): 14.6 µM | Activity (A549 [29]): Active | Activity (A549 [30]): 24% | inhibition (NCI-H1703 [31]): Active
